US20060234276A1, “Methods of treatment of type 2 diabetes” (priority 1998, published 2006)
Peptide text beside a SMILES is read from it.

Experiments:
mouse islets [1] = experiment: Islet NAD(P)H autofluorescence response; assay type: cell-based
Experimental: (§1) Measurement of islet [Ca^2+]i, and NAD(P)H. Islet [Ca^2+]i and NAD(P)H were measured as previously described (Pontoglio et al., 1998; Dukes et al., 1998).

perifused mouse islets = experiment: Insulin secretion from perifused islets; assay type: cell-based; conditions: 4 hr preincubation; 100 μM ALLM, 200 μM E-64-d
Experimental: Insulin secretion from perifused islets. Insulin secretion from perifused islets was measured using a modification of a previously described protocol (Pontoglio et al., 1998; Sreenan et al., 1998).

mouse islets [2] = experiment: Glucose utilization and oxidation rates in islets; assay type: cell-based
Experimental: Glucose utilization and oxidation rates. Glucose utilization and oxidation rates were measured as previously described (Dukes et al., 1998; Zhou et al., 1996) in mouse islets cultured as described above in the presence or absence of calpain inhibitors.

rat adipocytes = experiment: 2-Deoxyglucose uptake into adipocytes; assay type: cell-based; conditions: 100 μM ALLM or 200 μM E-64-d
Experimental: Adipocytes were isolated from epididymal fat pads of 3 month old male Wistar rats as described previously (Robdell, 1964) with the following modification: fat pads were minced to 1-2 mm pieces and incubated for ˜25 min at 37° C. with collagenase I (1 mg/ml, Worthington Biochemicals, Lakewood, N.J.) in KRB containing 10 mM Hepes (pH 7.4), 0.2% BSA and 2 mM sodium pyruvate. The cell suspension was filtered through a nylon mesh (134 μM, Spectrum Lab., Laguna Hills, Calif.) washed three times by floating and allowed to rest for 45 min in the KRB. […] Then another 50 μl of KRB containing 5 mM 2-DOG (final concentration 1 mM), 0.5 μCi of 2-deoxy-[2,6-^3H]glucose was added and cells were incubated for a further 5 min at 25° C. The transport was stopped by adding cytochalasin B (final concentration 50 μM) and cells were spun through 250 μl of dinonyl phthalate oil (Fisher Scientific, Pittsburgh, Pa.). Cells were then transferred to scintillation vials for counting.

isolated β-cells = experiment: Membrane capacitance recordings (exocytosis) in isolated β-cells; assay type: cell-based, mouse
Experimental: Isolation of pancreatic β-cells. Single β-cells were obtained from isolated islets dispersed by gentle trituration (120 strokes through a 200 μl pipette tip) in Ca^2+ and Mg^2+-free PBS containing […]. Cells were plated on glass coverslips and maintained in culture in RPMI containing 11.6 mM glucose for 48-96 hr.
Capacitance recordings. Capacitance measurements were made with the phase-tracking technique in which a 60 mV peak-to-peak sine wave was superimposed on a holding potential of −80 mV as previously described. Conductance and capacitance values were continuously generated and recorded. The whole-cell capacitance was canceled with the slow capacitance compensation; unbalancing the slow capacitance compensation by 100 fF provided the capacitance calibration signal used to calculate changes in membrane capacitance. The sinusoidal voltage template was interrupted to deliver depolarizations to a cell. Beta cells were stimulated with a train of ten step depolarizations to +20 mV (HP=−80 mV). Each step depolarization lasted 150 ms and was separated by 400 ms interpulse duration. Capacitance measurements were carried out in the perforated whole-cell configuration. The data were collected at a 500 μsec sampling rate and filtered at 5 kHz. Recordings with series resistance >20 MΩ were discarded. Series resistance compensation was applied in all recordings.
The recording solution for the capacitance measurements contained (in mM): 130 NaCl, 2 glucose, 10 Na-HEPES, 1 MgCl2, 2 KCl, and 5 CaCl2, pH 7.3 with NaOH. The pipette solution contained (in mM): 135 Cs-glutamate, 10 Na-HEPES, 9.5 NaCl, 0.5 TEACl, and 0.5 CaCl2, pH7.3 with CsOH. The pipettes were backfilled with an identical solution to which amphotericin B (final concentration of 0.5 mg/ml) was added and then sonicated. The amphotericin B stock solution (125 mg/ml) was kept frozen at −20° C. and used for one week. ALLM pre-treatment was as described above (see patch-clamp electrophysiology section). All electrophysiological recordings were carried out at room temperature (22-24° C.)

islets = experiment: Insulin content of islets after 48 h inhibitor exposure; assay type: cell-based, mouse; conditions: 48 hours treatment
rat soleus muscle strips = experiment: 2-Deoxyglucose uptake into soleus muscle strips; assay type: cell-based; conditions: 100 μM ALLM or 200 μM E-64-d
Experimental: 2-Deoxyglucose uptake into skeletal muscle and adipose tissue. 2-deoxyglucose (2-DOG) uptake by isolated strips of soleus muscle from normal Wistar rats was measured using a modification of a previously described protocol (Burant et al., 1984). […] Muscles were then extracted and 2-DOG uptake calculated as previously described (Burant et al., 1984).

mouse islets [3] = experiment: Measurement of islet [Ca2+]i (Fura-2); assay type: cell-based
Experimental: as §1
Insulin secretory responses to glucose and most other secretagogues is mediated by a rise in intracellular free calcium ([Ca^2+]i). We therefore measured [Ca^2+]i responses to glucose, KIC and KCl using Fura-2 as the Ca^2+ indicator. In comparison to the responses from the control islets, the most prominent abnormality in [Ca^2+]i responses to glucose and KIC was a delay of the [Ca^2+]i responses (FIG. 21). The mean time interval between administration of 14 mM glucose and the point of half maximal response (T1/2.) was 120±14 seconds in control islets. […] There was no delay in the appearance of [Ca^2+]i response to KCl, nor was the magnitude of the response reduced.

calpain = experiment: Calpain activity in mouse pancreatic islets (Boc-Leu-Met-CMAC cleavage); assay type: cell-based

In the case of `CSCC[C@@H](C=O)NC(=O)[C@H](CC(C)C)NC(=O)[C@H](CC(C)C)NC(C)=O` [ALLM, N-Ac-Leu-Leu-methioninal] (Ac-Leu-Leu-Met-aldehyde), the “NAD(P)H response to increase in glucose from 2 to 14 mM” value (mouse islets [1]; 100 μM ALLM or E-64-d, 4 hr preincubation) is reported as 2.7±0.4 fold increase, the “NAD(P)H responses to KIC vs control” value (mouse islets [1]; 48 h treated islets) is reported as “significantly reduced” and the “NAD(P)H responses to glucose vs control” value (mouse islets [1]; 48 h treated islets) is reported as “comparable”. For the same compound, the “enhancement of insulin secretory response to 20 mM glucose in dynamic islet perifusion” value (perifused mouse islets) was “also observed”, the “rate of glucose utilization at basal glucose” value (mouse islets [2]; 2 mM glucose, 100 μM ALLM or 200 μM E-64-d, 4 h) was 14.5±3.6 pmol/islet/hr and the “rate of glucose utilization at stimulatory glucose” value (mouse islets [2]; 20 mM glucose, 100 μM ALLM or 200 μM E-64-d, 4 h) was 89.5±3.0 pmol/islet/hr. For the same compound, the “rate of basal glucose utilization and oxidation at 3.3 mM glucose” value (mouse islets [2]; 48 h treated islets) was “no significant changes”, the “rates of glycolysis and glucose oxidation at stimulating concentrations of glucose” value (mouse islets [2]; 48 h treated islets vs controls) was “significantly reduced” and the “glucose oxidation rate at basal glucose” value (mouse islets [2]; basal glucose, ALLM or E-64-d, 4 h) was 6.0±0.7 pmol/islet/hr. For the same compound, the “glucose oxidation rate at stimulatory glucose” value (mouse islets [2]; stimulatory glucose, ALLM or E-64-d, 4 h) was 39.5±4.1 pmol/islet/hr, the “2-DOG uptake into adipocytes with insulin” value (rat adipocytes; insulin 12 nmol/L) was 751±71 pmol/2×10^5 cells/5 min and the “2-DOG uptake into adipocytes without insulin” value (rat adipocytes; no insulin) was 598±102 pmol/2×10^5 cells/5 min. For the same compound, the “rates of exocytosis in β-cells” value (isolated β-cells; 4 days culture with inhibitor) was “significantly lower rates of exocytosis”, the “change in membrane capacitance elicited by train of depolarizations” value (isolated β-cells; ALLM 100 μM pre-treatment, vs control cells) was “much larger average changes in membrane capacitance” and the “insulin content in islets vs control islets” value (islets) was “comparable”. For the same compound, the “2-deoxyglucose uptake into soleus muscle strips with insulin” value (rat soleus muscle strips; insulin 12 nM) was 0.34±0.05 (mol/ml H20/30 mins, the “2-deoxyglucose uptake into soleus muscle strips without insulin” value (rat soleus muscle strips; no insulin) was 0.28±0.04 (mol/ml H20/30 mins and the “[Ca2+]i response to high glucose” value (mouse islets [3]; 4 hr preincubation, 14 mM glucose) was “not associated with increases in [Ca^2+]i”. The “[Ca2+]i response to glucose ramp (2 to 26 mM over 48 mins)” value (mouse islets [3]; 48 h treated islets) was “diminished”, the “[Ca2+]i responses to 30 mM KCl vs control” value (mouse islets [3]; 48 h treated islets) was “not different” and the “integrated [Ca2+]i responses (area under the curves) to glucose and KIC vs control” value (mouse islets [3]; 48 h treated islets) was “significantly smaller”. For the same compound, the “T1/2 of [Ca2+]i response to 14 mM glucose (time to half maximal response)” value (mouse islets [3]; 48 h treated islets, control 120±14 seconds) was 5.32 ± 0.7 min, the “T1/2 of [Ca2+]i response to KIC” value (mouse islets [3]; 48 h treated islets, control 125±9) was 4.18 ± 0.7 min and the “area under the curve of rate of generation of fluorescent calpain product” value (calpain; 200 μM inhibitor, 4 hr incubation) was 35±4 % of control values. For the same compound, the “residual calpain activity in intact islets” value (calpain; 48 h treatment, 100 μM ALLM or 200 μM E-64-d) was 54±3 % of control treated islets.
